Consider two compounds from ChEMBL document CHEMBL1201862, “PubChem BioAssay data set” (2004).

Active and inactive are the calls of the source. Cut-off read from the data, not from the text of the source, for most assays here: actives have a measured IC50 and inactives only a lower limit. Some results are limits rather than exact numbers.

In assay [1] the target is T1, Mannose-6-phosphate isomerase (Homo sapiens, UniProt P34949).
T1 sequence (P34949 whole entry): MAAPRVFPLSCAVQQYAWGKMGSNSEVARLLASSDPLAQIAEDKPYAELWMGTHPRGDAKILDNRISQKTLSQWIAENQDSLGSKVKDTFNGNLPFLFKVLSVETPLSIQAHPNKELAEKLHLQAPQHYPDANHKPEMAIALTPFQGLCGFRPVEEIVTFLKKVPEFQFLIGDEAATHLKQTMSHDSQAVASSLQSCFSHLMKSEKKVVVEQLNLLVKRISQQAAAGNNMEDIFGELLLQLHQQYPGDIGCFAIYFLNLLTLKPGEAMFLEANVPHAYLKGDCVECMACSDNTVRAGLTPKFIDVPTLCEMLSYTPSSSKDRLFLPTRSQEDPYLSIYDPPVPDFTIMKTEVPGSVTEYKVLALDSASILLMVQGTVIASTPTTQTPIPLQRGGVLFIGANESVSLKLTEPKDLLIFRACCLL
As to the kind of experiment: MPI enzyme activity inhibition – biochemical, fluorescence intensity, coupled assay, primary screen (AID 1209).

Another assay relates to Vero. As to the kind of experiment: viability of Vero cells under compound – cytotoxicity control for flavivirus capping enzyme inhibitors (AID 588742). It is filed as functional. To be noted: Chlorocebus sabaeus.
The target in assay [2] is T2, Replicative DNA helicase DnaB (Mycobacterium tuberculosis, UniProt P9WMR3).
T2 sequence (P9WMR3 whole entry): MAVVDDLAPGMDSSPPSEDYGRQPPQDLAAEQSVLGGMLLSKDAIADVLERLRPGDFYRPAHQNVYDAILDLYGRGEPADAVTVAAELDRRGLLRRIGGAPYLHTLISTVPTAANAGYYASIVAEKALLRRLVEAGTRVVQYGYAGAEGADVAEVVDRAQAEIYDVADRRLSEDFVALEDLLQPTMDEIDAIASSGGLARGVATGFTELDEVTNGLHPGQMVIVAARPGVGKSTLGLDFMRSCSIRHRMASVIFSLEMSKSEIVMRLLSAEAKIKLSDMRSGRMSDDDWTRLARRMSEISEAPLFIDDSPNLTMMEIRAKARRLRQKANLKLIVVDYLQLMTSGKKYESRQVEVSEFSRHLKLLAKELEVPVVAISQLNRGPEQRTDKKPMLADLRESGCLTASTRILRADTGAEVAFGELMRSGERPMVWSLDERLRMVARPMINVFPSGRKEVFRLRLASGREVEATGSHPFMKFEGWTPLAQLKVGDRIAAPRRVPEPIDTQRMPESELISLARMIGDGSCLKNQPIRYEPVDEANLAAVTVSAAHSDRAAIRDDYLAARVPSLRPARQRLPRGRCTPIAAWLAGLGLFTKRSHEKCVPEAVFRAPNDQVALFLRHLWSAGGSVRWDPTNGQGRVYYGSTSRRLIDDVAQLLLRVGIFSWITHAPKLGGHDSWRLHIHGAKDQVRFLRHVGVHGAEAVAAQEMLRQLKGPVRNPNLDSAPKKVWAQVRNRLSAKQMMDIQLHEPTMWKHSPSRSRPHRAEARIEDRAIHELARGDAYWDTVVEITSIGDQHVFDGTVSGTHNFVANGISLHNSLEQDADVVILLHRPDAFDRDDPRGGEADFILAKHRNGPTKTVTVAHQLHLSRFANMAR
The experiment in a line: DnaB intein splicing inhibitors, dose response, biochemical, cell-free fluorescence (AID 449749). It is filed as functional.

Assay [3] concerns the target T1, Mannose-6-phosphate isomerase. As to the kind of experiment: MPI inhibition at elevated mannose 6-phosphate – biochemical, fluorescence intensity, high mannose 6-phosphate, primary screen (AID 1220).
In assay [4] the target is Voltage-gated N-type calcium channel alpha-1B subunit/Amyloid beta A4 precursor protein-binding family A member 1 (Homo sapiens, UniProt Q00975+Q02410). It is filed as protein assay.
Assay [5] has as its target T3, Tyrosine-protein phosphatase non-receptor type 12 (Homo sapiens, UniProt Q05209).
T3 sequence (Q05209 whole entry): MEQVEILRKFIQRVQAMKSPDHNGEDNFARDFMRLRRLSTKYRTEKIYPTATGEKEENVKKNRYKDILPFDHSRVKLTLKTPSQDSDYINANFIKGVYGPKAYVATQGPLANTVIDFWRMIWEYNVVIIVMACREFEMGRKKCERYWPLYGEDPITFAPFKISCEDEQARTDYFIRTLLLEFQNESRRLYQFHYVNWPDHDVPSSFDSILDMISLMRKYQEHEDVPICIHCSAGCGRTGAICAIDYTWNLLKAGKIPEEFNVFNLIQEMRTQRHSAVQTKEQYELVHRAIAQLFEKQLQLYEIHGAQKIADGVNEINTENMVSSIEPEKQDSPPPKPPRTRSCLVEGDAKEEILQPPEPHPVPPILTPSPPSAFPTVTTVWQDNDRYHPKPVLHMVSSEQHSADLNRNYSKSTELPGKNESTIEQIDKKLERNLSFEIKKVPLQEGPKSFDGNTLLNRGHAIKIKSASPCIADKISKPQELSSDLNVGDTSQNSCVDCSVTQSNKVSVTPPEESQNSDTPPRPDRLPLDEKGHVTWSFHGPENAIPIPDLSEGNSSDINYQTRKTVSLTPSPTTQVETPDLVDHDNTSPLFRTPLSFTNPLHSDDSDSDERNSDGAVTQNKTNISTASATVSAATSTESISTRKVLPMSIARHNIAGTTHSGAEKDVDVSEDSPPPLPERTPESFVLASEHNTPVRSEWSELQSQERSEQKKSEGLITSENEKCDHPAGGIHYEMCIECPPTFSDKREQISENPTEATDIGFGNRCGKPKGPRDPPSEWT
The experiment in a line: SAR Selectivity Analysis of small molecule inhibitors of PEST using pCAP in a fluorescence assay. [Related pubchem assays (depositor defined):AID1779, AID1784, AID2135]. It is filed as functional.

Assay [6] is described as follows: HEK-293T cell viability reduction – luminescence, B-cell screen hits, cytotoxicity control for BCR NF-kB inhibitor project, dose response (AID 489021).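 Note: HEK-293T cells carrying an NF-kB luciferase reporter; cells exposed to compound for about 14 hours before viability readout.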 It is filed as functional, cell-based.

Sequence of Voltage-gated N-type calcium channel alpha-1B subunit/Amyloid beta A4 precursor protein-binding family A member 1 (Q00975 whole entry): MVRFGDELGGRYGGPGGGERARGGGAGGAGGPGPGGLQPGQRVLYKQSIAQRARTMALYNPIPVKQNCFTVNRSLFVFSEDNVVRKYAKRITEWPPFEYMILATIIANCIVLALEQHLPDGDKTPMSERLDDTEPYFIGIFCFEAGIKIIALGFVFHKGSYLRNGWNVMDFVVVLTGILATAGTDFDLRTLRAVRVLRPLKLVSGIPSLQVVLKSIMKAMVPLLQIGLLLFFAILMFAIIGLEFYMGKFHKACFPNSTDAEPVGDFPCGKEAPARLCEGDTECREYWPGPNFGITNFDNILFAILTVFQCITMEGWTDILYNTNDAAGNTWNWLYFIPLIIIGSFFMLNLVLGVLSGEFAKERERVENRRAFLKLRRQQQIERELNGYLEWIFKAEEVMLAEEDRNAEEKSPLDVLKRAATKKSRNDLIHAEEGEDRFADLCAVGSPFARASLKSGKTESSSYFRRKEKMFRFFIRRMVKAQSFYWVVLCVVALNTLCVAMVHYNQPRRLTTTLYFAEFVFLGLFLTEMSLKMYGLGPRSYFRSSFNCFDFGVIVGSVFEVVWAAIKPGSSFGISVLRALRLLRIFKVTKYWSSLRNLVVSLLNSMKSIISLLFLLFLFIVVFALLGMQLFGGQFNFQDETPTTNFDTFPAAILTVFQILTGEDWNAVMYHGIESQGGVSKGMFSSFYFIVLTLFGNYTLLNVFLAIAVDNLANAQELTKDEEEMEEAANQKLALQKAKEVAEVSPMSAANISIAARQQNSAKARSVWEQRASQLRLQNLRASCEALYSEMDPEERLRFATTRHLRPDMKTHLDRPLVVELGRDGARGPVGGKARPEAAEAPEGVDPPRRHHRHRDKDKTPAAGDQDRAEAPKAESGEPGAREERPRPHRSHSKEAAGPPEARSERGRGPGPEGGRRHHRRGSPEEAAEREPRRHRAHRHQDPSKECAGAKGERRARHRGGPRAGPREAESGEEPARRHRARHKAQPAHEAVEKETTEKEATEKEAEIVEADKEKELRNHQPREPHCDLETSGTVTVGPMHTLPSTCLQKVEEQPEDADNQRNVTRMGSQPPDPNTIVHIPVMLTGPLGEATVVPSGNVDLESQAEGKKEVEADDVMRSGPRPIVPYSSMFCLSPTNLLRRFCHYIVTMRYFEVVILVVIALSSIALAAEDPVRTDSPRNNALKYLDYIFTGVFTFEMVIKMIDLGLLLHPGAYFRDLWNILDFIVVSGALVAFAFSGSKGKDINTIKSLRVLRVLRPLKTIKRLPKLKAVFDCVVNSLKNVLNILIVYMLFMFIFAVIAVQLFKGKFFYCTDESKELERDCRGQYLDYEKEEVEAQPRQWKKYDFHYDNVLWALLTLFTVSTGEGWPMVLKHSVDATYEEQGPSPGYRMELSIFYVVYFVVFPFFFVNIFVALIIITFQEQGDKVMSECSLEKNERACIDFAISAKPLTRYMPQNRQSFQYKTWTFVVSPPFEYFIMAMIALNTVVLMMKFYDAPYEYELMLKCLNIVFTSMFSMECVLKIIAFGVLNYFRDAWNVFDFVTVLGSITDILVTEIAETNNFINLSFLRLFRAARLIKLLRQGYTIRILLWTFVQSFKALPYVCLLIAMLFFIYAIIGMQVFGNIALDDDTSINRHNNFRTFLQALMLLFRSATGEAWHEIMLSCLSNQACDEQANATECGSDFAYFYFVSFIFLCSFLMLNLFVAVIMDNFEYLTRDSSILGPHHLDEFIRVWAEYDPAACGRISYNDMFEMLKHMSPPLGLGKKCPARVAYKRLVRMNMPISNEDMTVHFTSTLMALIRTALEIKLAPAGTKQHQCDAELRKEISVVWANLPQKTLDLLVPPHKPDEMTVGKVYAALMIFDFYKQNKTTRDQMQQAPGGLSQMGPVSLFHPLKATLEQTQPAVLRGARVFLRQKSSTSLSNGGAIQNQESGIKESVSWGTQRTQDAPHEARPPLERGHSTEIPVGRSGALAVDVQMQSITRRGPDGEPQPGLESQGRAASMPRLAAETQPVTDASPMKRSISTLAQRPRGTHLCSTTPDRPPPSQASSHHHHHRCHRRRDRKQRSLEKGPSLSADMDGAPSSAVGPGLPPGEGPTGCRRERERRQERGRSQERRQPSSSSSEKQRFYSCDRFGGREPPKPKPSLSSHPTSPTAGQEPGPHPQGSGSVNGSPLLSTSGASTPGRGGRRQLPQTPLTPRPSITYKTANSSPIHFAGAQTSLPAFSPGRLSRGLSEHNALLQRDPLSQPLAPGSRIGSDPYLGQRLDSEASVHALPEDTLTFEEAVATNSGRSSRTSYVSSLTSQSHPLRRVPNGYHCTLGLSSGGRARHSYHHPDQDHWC
Sequence of Voltage-gated N-type calcium channel alpha-1B subunit/Amyloid beta A4 precursor protein-binding family A member 1 (Q02410 whole entry): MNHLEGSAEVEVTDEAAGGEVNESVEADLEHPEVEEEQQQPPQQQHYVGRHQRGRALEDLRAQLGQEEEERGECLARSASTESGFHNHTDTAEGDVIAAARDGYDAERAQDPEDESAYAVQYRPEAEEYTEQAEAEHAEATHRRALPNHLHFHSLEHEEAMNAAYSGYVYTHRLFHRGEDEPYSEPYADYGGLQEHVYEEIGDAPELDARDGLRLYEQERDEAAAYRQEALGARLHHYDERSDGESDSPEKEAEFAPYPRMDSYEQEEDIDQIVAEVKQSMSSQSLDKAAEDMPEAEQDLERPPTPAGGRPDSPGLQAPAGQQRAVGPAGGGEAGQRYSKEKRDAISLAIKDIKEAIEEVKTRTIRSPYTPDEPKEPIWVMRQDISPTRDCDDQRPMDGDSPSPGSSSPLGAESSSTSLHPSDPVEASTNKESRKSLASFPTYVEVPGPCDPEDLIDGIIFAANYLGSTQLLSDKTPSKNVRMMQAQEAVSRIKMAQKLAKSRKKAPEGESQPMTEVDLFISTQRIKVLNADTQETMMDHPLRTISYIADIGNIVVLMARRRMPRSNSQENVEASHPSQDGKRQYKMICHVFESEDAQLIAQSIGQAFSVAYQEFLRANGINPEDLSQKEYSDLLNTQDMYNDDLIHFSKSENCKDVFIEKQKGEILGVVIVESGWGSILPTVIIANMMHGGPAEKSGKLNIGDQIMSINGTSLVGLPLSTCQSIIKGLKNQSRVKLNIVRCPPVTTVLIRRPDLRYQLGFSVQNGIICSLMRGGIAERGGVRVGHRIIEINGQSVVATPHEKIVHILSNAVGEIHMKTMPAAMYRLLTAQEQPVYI

For the compound `COc1ccc(Nc2ccc3c(c2)=NC2(CCCCC2)[N+]=3[O-])cc1`, the IC50 in assay [1] and in assay [3] was > 50 µM (not active) throughout. The 50% cytotoxic concentration (CC50) in the assay on Vero was 10.8 µM (active). Further, in assay [2], the AC50 was 9.3 µM (active).
With `COc1ccc(/C=C2\SC(=S)N(CCC(=O)Nc3ccc(C(=O)O)cc3)C2=O)cc1OC`, the values for the 50% inhibitory concentration (IC50) in assay [4], in assay [5] and in assay [6] were 7.89 µM (active), 1.13 µM (active) and > 80 µM (inactive), respectively.

The term IC50 denotes the concentration needed to halve the response being measured. For orientation: CC50 means the concentration that lowers cell viability or growth by half. As a reminder, the AC50 is the concentration giving half of the maximal activity seen.
